According to PMC8480273, “Design, synthesis, and biological evaluation of symmetrical azine derivatives as novel tyrosinase inhibitors” (BMC Chemistry, 2021):
Where two headings read alike, the source gives them in different places. Each block holds one molecule with its values, some of them ahead of it.

Key:
mushroom tyrosinase = target: T1, mushroom tyrosinase (Agaricus bisporus, UniProt C7FF04); assay: Determination of the inhibition type (Lineweaver–Burk kinetics); assay type: biochemical; conditions: Lineweaver–Burk plot, L-DOPA substrate
T1 construct: purchased Sigma Chemical Co. (St. Louis, MO, USA)
T1 sequence (C7FF04 1-392): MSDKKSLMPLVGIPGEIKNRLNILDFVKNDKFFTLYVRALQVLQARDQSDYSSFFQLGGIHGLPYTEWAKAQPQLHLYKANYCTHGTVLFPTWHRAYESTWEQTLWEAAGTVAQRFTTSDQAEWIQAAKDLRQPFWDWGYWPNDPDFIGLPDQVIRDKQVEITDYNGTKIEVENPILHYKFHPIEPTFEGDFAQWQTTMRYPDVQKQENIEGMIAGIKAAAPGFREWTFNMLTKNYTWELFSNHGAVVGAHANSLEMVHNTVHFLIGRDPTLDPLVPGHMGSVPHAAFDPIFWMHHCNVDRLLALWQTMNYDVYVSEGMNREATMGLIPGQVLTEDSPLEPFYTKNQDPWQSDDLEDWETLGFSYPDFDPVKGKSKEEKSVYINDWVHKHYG
Procedure: A series of experiments were performed to determine the inhibition kinetics of 3f. The inhibitor concentrations were: 0, 8, 16 μM. Substrate (L-DOPA) concentrations were (0.1, 0.25, 0.5, 0.75 and 1.5 mM) in kinetic studies. Pre-incubation and measurement time was the same as discussed in the mushroom tyrosinase inhibition assay protocol. Maximum initial velocity was determined from the initial linear portion of absorbance up to 10 min after addition of L-DOPA with 1 min interval. The Michaelis constant (Km) and the maximal velocity (Vmax) of the tyrosinase activity were determined by the Lineweaver–Burk plot at various concentrations of L-DOPA as a substrate. The inhibition type of the enzyme was assayed by Lineweaver–Burk plots of the inverse of velocities (1/V) versus the inverse of substrate concentrations 1/[S] mM^−1.

[1] = MTT assay for cell viability, B16F10; assay type: cell-based; conditions: mouse, B16F10 melanoma cells, B16F10, 10 µM, ± SD
Procedure: (§1) The cytotoxic activity of compound was evaluated in B16F10 cells using 3-(4,5-dimethylthiazol-2-yl)-2,5-diphenyltetrazolium bromide (MTT) assay. Cells were seeded in a 96-well plate (5 × 10^3 cells/well) and incubated at 37 °C with samples at different concentrations for 48 h. Following the treatment, cells were incubated with MTT (0.5 mg mL^−1) at 37 °C for 3 h. The MTT-containing medium was then removed, and 100 μL of DMSO was added to each well, mixed thoroughly with a 10 min shake to dissolve formazan crystals. The absorbance of each well was measured at 540 nm.

[2] = MTT assay for cell viability, A375; assay type: cell-based; conditions: human, A375 melanoma cells, A375, 10 µM, ± SD
Procedure: The A375 cell line is derived from a human skin melanoma carrying two mutant genes, B-RAF and CDKN2 which are associated with melanoma of sun-damaged skin [48]. To determine the cytotoxicity of 3f in A375 melanoma cell lines, MTT studies were conducted.
as §1

B16F10 melanoma cells = assay: Melanin content assay; assay type: cell-based; conditions: B16F10, 10 µM, in comparison with the control
Procedure: B16F10 cells were seeded in six-well plates (1.0 × 10^5 cells/well). After 24 h, the medium was substituted by a fresh one and treated with 3f, and incubated for 48 h. Then, cells were treated with 100 nM α -MSH. […] After incubation cells were washed twice with PBS and harvested using […] trypsin, then dissolved in 300 μL of 1 N NaOH/10% DMSO buffer and boiled for 2 h at 80 °C to solubilize the melanin. The absorbance of the supernatant was measured at 470 nm in a microplate reader. The obtained results were normalized using total protein content.

tyrosinase = conditions: cited from earlier work

Vmax and Km values in the presence of increasing concentrations of compound (mushroom tyrosinase): decreased
type of inhibition (mushroom tyrosinase; inhibitor 0, 8, 16 μM): uncompetitive
Molecule: Oc1ccc(C=NN=Cc2ccc(O)cc2O)c(O)c1 [Compound 3f, 4,4′-(Hydrazine-1,2-diylidenebis(methaneylylidene))bis(benzene-1,3-diol)]
viability at 48 h, 10 µM [1]: 60.1 ± 9.82%
viability at 48 h, 10 µM [2]: > 82%
Melanin content (%) (B16F10 melanoma cells): 79.58%

Molecule: CCOc1cc(/C=N/NC(=O)c2ccc(O)cc2)ccc1O [D]
IC50 (tyrosinase; hydrazine-containing compound): 9.9 µM

Molecule: O=C1c2c(O)cc(O)cc2O[C@H](c2ccc(O)cc2O)[C@H]1O [Dihydromorin]
IC50 (tyrosinase; Fig. 1, flavanol): 10.3 µM

Molecule: CCOc1cc(/C=N/NC(=O)c2ccc(O)c(OC)c2)ccc1O [E]
IC50 (tyrosinase; hydrazine-containing compound): 1.58 µM

Molecule: NC(=S)N/N=C/c1ccc([N+](=O)[O-])cc1 [F]
IC50 (tyrosinase; hydrazine-containing compound): 0.05 µM

Molecule: O=c1cc(-c2ccc(O)c(O)c2)oc2cc(O)cc(O)c12 [Luteolin]
IC50 (tyrosinase; Fig. 1, flavone): 60 µM

Molecule: O=c1c(O)c(-c2ccc(O)c(O)c2)oc2cc(O)cc(O)c12 [Quercetin]
Ki (tyrosinase; Fig. 1, flavonol): 29 µM

Molecule: Oc1ccc(/C=C/c2cc(O)cc(O)c2)cc1 [Resveratrol, 3,5,4′-trihydroxy-trans-stilbene]
IC50 (tyrosinase; Fig. 1, stilbenoid): 1 to 9 µM
IC50 (tyrosinase; resveratrol): 26.6 µM

Molecule: O=C1CC(c2ccc(O)cc2O)Oc2cc(O)cc(O)c21 (stereo not drawn) [Streppogenin]
IC50 (tyrosinase; Fig. 1, flavanone): 1.3 µM

Molecule: Oc1ccc(/C=N/c2ccccc2O)c(O)c1 [compound B]
IC50 (tyrosinase; most potent bibenzyl compound of Oozeki et al.): 0.37 µM

Molecule: Chalcone
IC50 (tyrosinase; Fig. 1, chalcone): 8.1 µM

Molecule: Phthalimide
IC50 (tyrosinase; Fig. 1, phthalimide): 26.2 µM

Molecule: Quinazoline
IC50 (tyrosinase; Fig. 1, quinazoline): 0.46 µM
